Assays:
various cells = test: Cytotoxicity of SNS-595 in various cells; assay type: cell-based
Excerpt: SNS-595 is a cell cycle inhibitor and arrests cells at the G2 interface. Initially, the activity of SNS-595 was believed due to topoisomerase II inhibition.
As shown by FIG. 1, ATM, ATR, and DNA-PK are three central DNA sensors/effectors that depending on the level of DNA damage that is detected within an individual cell, direct the cell into one of several outcomes including DNA repair, G2 arrest or apoptosis.

[1] = Pharmacokinetics of SNS-595 in cancer patients; assay type: in vivo, human
Method: SNS-595 was administered to enrolled patients for up to six cycles. A cycle is defined as a three-week period, with SNS-595 administered on the first day of each cycle (day 0), followed by at least 21 days of observation. SNS-595 was administered to cohorts of at least 3 patients and dose escalation occurred by sequential cohort.

DNA-PK pathway [2] = test: Dose-dependent responses of DNA-PK pathway members in HCT 116 cells (FIG. 2); assay type: cell-based; conditions: H2AX, c-Abl, p53, p73, p21, caspase-9, caspase-3
Excerpt: (§1) This damage impedes the ability of the cell to synthesize DNA and lengthens the time the cell spends in the S phase. […] When the DNA damage is sufficiently severe such that the double-strand breaks cannot be repaired through non-homologous end joining (NHEJ), the cell rapidly enters apoptosis. Some cells are able to reach the G2 phase but are subsequently arrested (mediated by cdc2/cyclin B) because the cells are too damaged to enter into the M phase and also eventually becomes apoptotic.

non-proliferating cells = test: Cytotoxicity to non-proliferating cells; assay type: cell-based; conditions: doses cytotoxic to proliferating cells
Excerpt: as §1, with “Treatment with SNS-595 results in an increase in the number of double-strand DNA breaks that form during the S phase. This” for “This”

DNA-PK pathway [3] = test: Pharmacodynamic study, HCT116 xenograft tumors, Western blots (FIG. 3); assay type: in vivo; conditions: nu/nu mice, IV bolus 20 or 40 mg/kg, 1-24 hours post dose
Method: Nu/nu mice (ca. 25 grams) were injected with HCT116 cells (which were obtained from the ATCC) in the hind flank at 5 million cells with 50% matrigel (Becton-Dickinson). Tumors were allowed to grow to 400 mm^3. Xenograft bearing animals were then given either an IV bolus injection of SNS-595 (20 or 40 mg/kg) in the tail vein or a saline vehicle. At prescribed time points (1, 2, 4, 8, 16, and 24 hours post dose), animals were anesthetized with CO2, blood was taken via terminal cardiac puncture, and animals were sacrificed. Tumors were excised, pulverized using liquid nitrogen-cooled mortar and pestle, and flash-frozen in liquid nitrogen. Tumor lysates were made from pulverized samples by addition of lysis buffer. The protein concentrations of the DNA-PK pathway members were determined by Western blots. Approximately 25 micrograms of protein was loaded per lane on an SDS-PAGE gel. Proteins were separated by gel electrophoresis, blotted onto nitrocellulose membranes, and detected using the following antibodies: H2AX, phosphorylated at S139 (Cell Signaling, catalog no. 2577L); p53, phosphorylated at S15 (Cell Signaling, catalog no. 9284S); p53, phosphorylated at S37 (Cell Signaling, catalog no. 9289S); p21 (Cell Signaling, catalog no. 2946); cdc2, phosphorylated at Y15 (Calbiochem, catalog no. 219437); cyclin B (Santa Cruz, catalog no.sc-594 (H-20)); p73, phosphorylated at […] […]

[4] = system: stable variant of HCT-116 cells; test: Sensitivity of SNS-595-resistant HCT-116 variant; assay type: cell-based; conditions: cells with induced resistance
Excerpt: Consistent with this mechanism, cells with induced resistance to SNS-595 also have alterations in the DNA-PK pathway. […] Conversely, decreased levels of DNA-PK or its activity (e.g. in the presence of an inhibitor) is associated with an increased sensitivity to SNS-595.

relation of dose with AUC∞ ([1]; dose escalation by cohort): linear
MRT inf ([1]; human, intravenous, plasma, dose 3 mg/m2, mean, read-out: MRTINF_obs): 22 h
MRTINF_obs ([1]; plasma, dose 6 mg/m2, mean): 29.05 h
C0 ([1]; plasma, dose 12 mg/m2, mean): 2888.66 ng/mL
MRTINF_obs ([1]; plasma, dose 12 mg/m2, mean): 23.67 h
Structure (SMILES): CN[C@H]1CN(c2ccc3c(=O)c(C(=O)O)cn(-c4nccs4)c3n2)C[C@@H]1OC [SNS-595, (+)-1,4-dihydro-7-[(3S,4S)-3-methoxy-4-(methylamino)-1-pyrrolidinyl]-4-oxo-1-(2-thiazoyl)-1,8-naphthyridine-3-carboxylic acid]
EC50 (various cells): 200 to 300 nM
difference in potency, cell EC50 versus biochemical inhibition of topoisomerase II (various cells): at least a ten-fold difference
EC50 in caffeine treated cells (G2 arrest abrogated) versus untreated cells (various cells; caffeine inhibits ATM and ATR): essentially no difference in EC50 values
activity in 2-deoxyglucose treated cells versus untreated cells (various cells; topoisomerase II levels modulated with 2-deoxyglucose): essentially no difference in activity
activation of DNA-PK mediated repair and apoptotic machinery (DNA-PK pathway [2]): activates, in a dose dependent manner
lethality to non-proliferating cells (non-proliferating cells): non-lethal
levels of DNA-PK pathway members in tumors (DNA-PK pathway [3]): activated
sensitivity to SNS-595 relative to HCT-116 cells [4]: approximately ten fold less sensitive

Reference: US7968565B2, “Therapeutic combinations comprising (+)-1,4-dihydro-7-[(3S,4S)-3-methoxy-4-(methylamino)-1-pyrrolidinyl]-4-oxo-1-(2-thiazolyl)-1,8-naphthyridine-3-carboxylic acid” (Sunesis Pharmaceuticals, Inc., priority 2004, dated 2011)
